Test [1] has as its system Erysiphe graminis f.sp. tritici. Nature of the test: Efficacy against Erysiphe graminis f.sp. tritici on wheat (Example B-1), spray application. In kind it is in vivo, Erysiphe graminis f.sp. tritici on wheat plants c.v. Arina. The text has this:
(§1) A synergistic effect exists whenever the action of an active ingredient combination is greater than the sum of the actions of the individual components.
(§2) The action to be expected E for a given active ingredient combination obeys the so-called COLBY formula and can be calculated as follows (COLBY, S. R. “Calculating synergistic and antagonistic responses of herbicide combination”. Weeds, Vol. 15, pages 20-22; 1967):
(§3) According to Colby, the expected (additive) action of active ingredients I+II using p+q ppm of active ingredient is [formula]
(§4) If the action actually observed (O) is greater than the expected action (E), then the action of the combination is superadditive, i.e. there is a synergistic effect. Alternatively the synergistic action may also be determined from the dose response curves according to the so-called WADLEY method. With this method the efficacy of the a.i. is determined by comparing the degree of fungal attack on treated plants with that on untreated, similarly inoculated and incubated check plants. Each a.i. is tested at 4 to 5 concentrations. The dose response curves are used to establish the EC90 (i.e. concentration of a.i. providing 90% disease control) of the single compounds as well as of the combinations (EC 90observed). The thus experimentally found values of the mixtures at a given weight ratio are compared with the values that would have been found were only a complementary efficacy of the components was present (EC 90 (A+B)expected). The EC90 (A+B)expected is calculated according to Wadley (Levi et al., EPPO- Bulletin 16, 1986, 651-657): [formula]
Wheat plants c.v. “Arina”, about 10 days old, are sprayed with aqueous suspensions of the active ingredients or mixtures thereof. One day later, the plants are inoculated by dusting with spores of Erysiphe graminis. The tests may also be carried out with curative applications, i.e. application 1-3 days after artificial inoculation of the plants. The plants are incubated in the greenhouse or in climate chambers at 20° C., 70% relative humidity. 7 to 10 days after inoculation, fungal attack on primary leaves is assessed.
(§5) The efficacy of the test combinations and the single active ingredients in the above tests is determined by comparing the degree of fungal attack with that on untreated, similarly inoculated check plants.

For the next test, the system named is Puccinia recondita. Nature of the test: Activity against Puccinia recondita in wheat (B-7), spray application. It counts as in vivo, Puccinia recondita on wheat plants c.v. Arina. The settings on record: Table 5.
Excerpt: as §1, §2, §3, §4
Wheat plants c.v. “Arina”, about 10 days old, are sprayed with aqueous suspensions of the active ingredients or mixtures thereof. One day later, the plants are inoculated with a spore suspension of the fungus. The test may also be carried out with curative applications, i.e. application 1-3 days later after artificial inoculation of the plants. The plants are incubated in a growth chamber for 2 days at °20° C. and 95-100% relative humidity, then further 10 days at 20° C. and 70% relative humidity. Fungal attack on primary leaves is assessed.
as §5

The subject of test [2] is Helminthosporium gramineum. The experiment in a line: Activity against Helminthosporium gramineum on barley (Example B-12), seed treatment. The note with it: Table 6. It counts as in vivo.
Excerpt: as §1, §2, §3, §4
Barley seed which is infected with H.gramineum is harvested from the field. […] About 60 days after sowing, the number of existing plants and the number of infected plants are determined. Symptoms are expressed as typical stripe-shaped spots on the first leaf. The total infection rate is compared with the total infection rate in the comparison seed trays with untreated seeds and expressed as the total percentage infection rate.

The values below come from patent US20030130290A1, “Fungicidal combinations comprising thieno[2,3-d]pyrimidin-4-one” (priority 1997, published 2003).

Molecules are shown by their SMILES.

As for `N#Cc1c[nH]cc1-c1cccc2c1OC(F)(F)O2` [Fludioxonil, fludioxonil, reference compound], the “% activity observed” value is reported as 2% in test [1] (Table 1, 10 ppm alone); 0% in test [1] (Table 1, 25 ppm alone); 6% in test [1] (Table 1, 50 ppm alone); 14% in test [1] (Table 1, 100 ppm alone); 19% in test [1] (Table 1, 250 ppm alone); 27% in test [1] (Table 1, 500 ppm alone).
Regarding `CCCOc1nc2sc(Cl)cc2c(=O)n1CCC` [cmpd. I.01], the “% activity observed” value is 0% in test [1] (Table 1, 10 ppm alone); 0% in test [1] (Table 1, 25 ppm alone); 12% in test [1] (Table 1, 50 ppm alone); 26% in test [1] (Table 1, 100 ppm alone); 34% in test [1] (Table 1, 250 ppm alone); 66% in test [1] (Table 1, 500 ppm alone). Also, the “% activity observed” value in test [1] (Table 2, 1 ppm alone) is reported as 0%; in test [1] (Table 2, 2.5 ppm alone) it was 0%; in test [1] (Table 2, 5 ppm alone), 8%; in test [1] (Table 2, 10 ppm alone), 8%; in test [1] (Table 2, o.5 ppm alone) it was 0%; in test [1] (Table 3, 0.5 ppm alone) it was 2%. Moreover, the “% activity observed” value in test [1] (Table 3, 1 ppm alone) was 0%; in test [1] (Table 3, 2.5 ppm alone), 14%; in test [1] (Table 3, 5 ppm alone) it was 8%; in test [1] (Table 3, 10 ppm alone), 4%; in test [1] (Table 4, 0.25 ppm alone) it was 0%; in test [1] (Table 4, 0.5 ppm alone), 0%. In addition, the “% activity observed” value was found to be 0% in test [1] (Table 4, 1 ppm alone); 0% in test [1] (Table 4, 2.5 ppm alone); 0% in the test on Puccinia recondita (0.5 ppm alone); 0% in the test on Puccinia recondita (1 ppm alone); 0% with Puccinia recondita (2.5 ppm alone); 0% with Puccinia recondita (5 ppm alone). For the same compound, the “% activity observed” value is recorded as 0% in the test with Puccinia recondita (10 ppm alone), 0% in the test with Puccinia recondita (25 ppm alone) and 11% in test [2] (20 g a.i./100 kg seed alone).
`CON=C(C(=O)OC)c1ccccc1CON=C(C)c1cccc(C(F)(F)F)c1` [cmpd. V, methyl 2-{2-[4-(3-trifluoromethylphenyl)-3-aza-2-oxa-3-pentenyl]-phenyl}-2-methoxyimino-acetate, reference compound]: in the test on Puccinia recondita (Puccinia recondita, 1 ppm alone, read-out: % activity observed), the inhibition at 1 ppm amounted to 17%. Moreover, the inhibition at 2.5 ppm in the test with Puccinia recondita (Puccinia recondita, 2.5 ppm alone, read-out: % activity observed) was 32%. In the test with Puccinia recondita (Puccinia recondita, 5 ppm alone, read-out: % activity observed), the inhibition at 5 ppm was 38%. The inhibition at 10 ppm with Puccinia recondita (Puccinia recondita, 10 ppm alone, read-out: % activity observed) came out at 37%.
As for `CC(C1CC1)C(O)(Cn1cncn1)c1ccc(Cl)cc1` (stereo not drawn) [cyproconazole, reference compound], the “% activity observed” value in test [1] (Table 2, 1 ppm alone) is 8%; in test [1] (Table 2, 2.5 ppm alone), 49%; in test [1] (Table 2, 5 ppm alone) it was 100%; in test [1] (Table 2, 10 ppm alone), 100%.
In the case of `CC(Cc1ccc(C(C)(C)C)cc1)CN1CCCCC1` (stereo not drawn) [fenpropidine, reference compound], the inhibition at 2.5 ppm in test [1] (Blumeria graminis, Table 4, 2.5 ppm alone, read-out: % activity observed) is 35%. The inhibition at 5 ppm in test [1] (Blumeria graminis, Table 4, 5 ppm alone, read-out: % activity observed) was determined as 51%. Besides, the inhibition at 10 ppm in test [1] (Blumeria graminis, Table 4, 10 ppm alone, read-out: % activity observed) came to 63%.
With `CCCC1COC(Cn2cncn2)(c2ccc(Cl)cc2Cl)O1` (stereo not drawn) [propiconazole, reference compound], the “% activity observed” value is listed as 0% in test [1] (Table 3, 0.1 ppm alone); 0% in test [1] (Table 3, 0.25 ppm alone); 6% in test [1] (Table 3, 0.5 ppm alone); 8% in test [1] (Table 3, 1 ppm alone); 72% in test [1] (Table 3, 2.5 ppm alone).
In the case of `CC1(C)CC/C(=C\c2ccc(Cl)cc2)C1(O)Cn1cncn1` (stereo not drawn) [triticonazole], the “% activity observed” value in test [2] (20 g a.i./100 kg seed alone) was determined as 12%; in test [2] (40 g a.i./100 kg seed alone), 22%.
